Experimental data reported in ChEMBL document CHEMBL5653631, “A Potent and Selective ULK1 Inhibitor Suppresses Autophagy and Sensitizes Cancer Cells to Nutrient Stress” (iScience, 2018).
Values belong to the compound of their own block, whether it stands above or below them.

What was measured:
[1] = molecular target: Serine/threonine-protein kinase PAK 6 (Homo sapiens) (UniProt Q9NQU5); assay: Inhibition of human recombinant PAK6 at 500 nM related to control ULK1
[2] = molecular target: Protein kinase C theta type (Homo sapiens) (UniProt Q04759); assay: Inhibition of human recombinant PKCt at 500 nM related to control ULK1
[3] = molecular target: Mitogen-activated protein kinase kinase kinase 9 (Homo sapiens) (UniProt P80192); assay: Inhibition of human recombinant MLK1 at 500 nM in presence of ATP by radiometric assay relative to control
[4] = molecular target: Dual specificity protein kinase CLK2 (Homo sapiens) (UniProt P49760); assay: Inhibition of human recombinant CLK2 at 500 nM related to control ULK1
[5] = molecular target: T1, Protein kinase C epsilon type (Homo sapiens) (UniProt Q02156); assay: Inhibition of human recombinant PKCe at 500 nM related to control ULK1
T1 sequence (whole entry): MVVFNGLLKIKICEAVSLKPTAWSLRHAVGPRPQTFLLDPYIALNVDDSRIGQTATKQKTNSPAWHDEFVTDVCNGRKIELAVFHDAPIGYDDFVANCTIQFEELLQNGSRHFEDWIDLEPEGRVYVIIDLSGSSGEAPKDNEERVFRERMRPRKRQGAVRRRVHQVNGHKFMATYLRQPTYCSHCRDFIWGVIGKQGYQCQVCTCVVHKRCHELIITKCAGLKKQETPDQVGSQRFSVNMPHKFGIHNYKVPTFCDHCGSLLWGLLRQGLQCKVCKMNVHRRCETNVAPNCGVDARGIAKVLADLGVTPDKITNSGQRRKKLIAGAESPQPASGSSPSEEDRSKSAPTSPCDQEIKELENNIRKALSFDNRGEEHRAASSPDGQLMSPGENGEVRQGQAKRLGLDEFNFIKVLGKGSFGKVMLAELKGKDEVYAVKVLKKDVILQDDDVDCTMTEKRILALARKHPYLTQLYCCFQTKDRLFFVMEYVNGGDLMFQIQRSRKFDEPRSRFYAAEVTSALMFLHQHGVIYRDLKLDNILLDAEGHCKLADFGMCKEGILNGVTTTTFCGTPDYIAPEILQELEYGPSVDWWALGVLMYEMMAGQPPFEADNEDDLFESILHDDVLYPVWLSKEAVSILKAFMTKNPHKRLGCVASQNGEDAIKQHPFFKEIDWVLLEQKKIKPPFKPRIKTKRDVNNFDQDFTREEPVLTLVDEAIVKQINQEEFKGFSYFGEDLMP

[6] = molecular target: MAP kinase-interacting serine/threonine-protein kinase 2 (Homo sapiens, UniProt Q9HBH9); assay: Inhibition of human recombinant MNK2 at 500 nM in presence of ATP by radiometric assay relative to control
[7] = molecular target: T2, Serine/threonine-protein kinase Nek2 (Homo sapiens) (UniProt P51955); assay: Inhibition of human recombinant NEK2 at 500 nM in presence of ATP by radiometric assay relative to control
T2 sequence (whole entry): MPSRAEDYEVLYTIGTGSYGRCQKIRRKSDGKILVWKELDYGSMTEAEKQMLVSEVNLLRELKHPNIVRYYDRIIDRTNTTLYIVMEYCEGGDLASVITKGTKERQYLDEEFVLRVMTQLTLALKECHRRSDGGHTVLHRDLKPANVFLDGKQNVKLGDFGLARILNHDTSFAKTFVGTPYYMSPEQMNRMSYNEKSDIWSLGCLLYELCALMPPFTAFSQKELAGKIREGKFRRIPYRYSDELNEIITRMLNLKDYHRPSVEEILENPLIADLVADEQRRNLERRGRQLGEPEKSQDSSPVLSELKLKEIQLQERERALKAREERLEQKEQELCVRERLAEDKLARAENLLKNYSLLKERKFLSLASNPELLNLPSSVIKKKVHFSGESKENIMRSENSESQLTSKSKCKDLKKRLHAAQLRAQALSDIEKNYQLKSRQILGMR

[8] = molecular target: Calcium/calmodulin-dependent protein kinase kinase 2 (Homo sapiens) (UniProt Q96RR4); assay: Inhibition of human recombinant CaMKK2 at 40 nM in presence of ATP by radiometric assay relative to control
[9] = molecular target: Calcium/calmodulin-dependent protein kinase type II subunit gamma (Homo sapiens) (UniProt Q13555); assay: Inhibition of human recombinant CaMK2g at 40 nM related to control ULK1
[10] = molecular target: T3, Serine/threonine-protein kinase 17B (Homo sapiens) (UniProt O94768); assay: Inhibition of human recombinant DRAK2 at 40 nM related to control ULK1
T3 sequence (whole entry): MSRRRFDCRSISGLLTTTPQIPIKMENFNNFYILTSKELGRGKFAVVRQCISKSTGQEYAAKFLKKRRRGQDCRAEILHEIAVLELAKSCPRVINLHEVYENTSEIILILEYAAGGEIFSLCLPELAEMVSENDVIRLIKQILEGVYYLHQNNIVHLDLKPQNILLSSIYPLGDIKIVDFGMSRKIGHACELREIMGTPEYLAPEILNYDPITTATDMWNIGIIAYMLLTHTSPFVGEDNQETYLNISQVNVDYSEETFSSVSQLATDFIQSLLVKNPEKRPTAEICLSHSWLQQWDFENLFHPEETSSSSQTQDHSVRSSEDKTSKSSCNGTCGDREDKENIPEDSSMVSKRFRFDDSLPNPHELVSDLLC

[11] = molecular target: Dual specificity tyrosine-phosphorylation-regulated kinase 1A (Homo sapiens) (UniProt Q13627); assay: Inhibition of human recombinant DYRK1A at 40 nM related to control ULK1
[12] = molecular target: T4, Rhodopsin kinase GRK1 (Homo sapiens) (UniProt Q15835); assay: Inhibition of human recombinant RHOK at 40 nM related to control ULK1
T4 sequence (whole entry): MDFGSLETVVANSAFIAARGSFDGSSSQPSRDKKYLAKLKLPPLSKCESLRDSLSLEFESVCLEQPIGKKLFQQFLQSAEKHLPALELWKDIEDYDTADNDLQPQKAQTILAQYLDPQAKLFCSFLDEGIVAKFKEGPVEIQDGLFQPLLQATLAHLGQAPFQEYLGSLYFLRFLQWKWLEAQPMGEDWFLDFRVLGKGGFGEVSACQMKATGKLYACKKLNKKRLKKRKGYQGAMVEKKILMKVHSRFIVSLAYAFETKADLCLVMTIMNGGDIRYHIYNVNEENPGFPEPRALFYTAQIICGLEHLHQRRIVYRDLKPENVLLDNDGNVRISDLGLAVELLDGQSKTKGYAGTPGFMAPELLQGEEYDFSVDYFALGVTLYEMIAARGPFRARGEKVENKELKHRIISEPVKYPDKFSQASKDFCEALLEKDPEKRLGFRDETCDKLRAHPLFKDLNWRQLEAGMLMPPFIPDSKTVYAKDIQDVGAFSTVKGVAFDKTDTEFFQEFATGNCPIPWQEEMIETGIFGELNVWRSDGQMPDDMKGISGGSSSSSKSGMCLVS

[13] = molecular target: Tyrosine-protein kinase BTK (Homo sapiens) (UniProt Q06187); assay: Inhibition of human recombinant BTK at 15 nM related to control ULK1
Tyrosine-protein kinase BTK (Homo sapiens), sequence (Q06187 whole entry): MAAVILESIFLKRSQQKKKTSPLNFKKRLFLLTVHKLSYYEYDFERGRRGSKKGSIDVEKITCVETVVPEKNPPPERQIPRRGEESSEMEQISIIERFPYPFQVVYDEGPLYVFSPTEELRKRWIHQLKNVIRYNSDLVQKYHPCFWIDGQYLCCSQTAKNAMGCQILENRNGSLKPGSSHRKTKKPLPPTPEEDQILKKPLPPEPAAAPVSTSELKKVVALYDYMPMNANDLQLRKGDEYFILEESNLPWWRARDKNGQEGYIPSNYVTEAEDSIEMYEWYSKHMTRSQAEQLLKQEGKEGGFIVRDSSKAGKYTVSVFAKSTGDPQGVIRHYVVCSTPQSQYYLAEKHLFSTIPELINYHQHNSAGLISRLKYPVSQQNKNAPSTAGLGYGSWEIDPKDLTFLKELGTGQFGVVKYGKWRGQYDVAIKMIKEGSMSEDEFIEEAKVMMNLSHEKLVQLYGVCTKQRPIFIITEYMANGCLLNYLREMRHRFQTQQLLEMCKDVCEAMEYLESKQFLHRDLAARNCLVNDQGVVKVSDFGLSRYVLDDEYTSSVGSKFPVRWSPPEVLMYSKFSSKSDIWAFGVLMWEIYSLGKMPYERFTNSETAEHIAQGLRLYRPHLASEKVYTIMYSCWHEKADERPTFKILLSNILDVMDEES

Dual specificity protein kinase CLK2 (Homo sapiens), sequence (P49760 whole entry, looked up): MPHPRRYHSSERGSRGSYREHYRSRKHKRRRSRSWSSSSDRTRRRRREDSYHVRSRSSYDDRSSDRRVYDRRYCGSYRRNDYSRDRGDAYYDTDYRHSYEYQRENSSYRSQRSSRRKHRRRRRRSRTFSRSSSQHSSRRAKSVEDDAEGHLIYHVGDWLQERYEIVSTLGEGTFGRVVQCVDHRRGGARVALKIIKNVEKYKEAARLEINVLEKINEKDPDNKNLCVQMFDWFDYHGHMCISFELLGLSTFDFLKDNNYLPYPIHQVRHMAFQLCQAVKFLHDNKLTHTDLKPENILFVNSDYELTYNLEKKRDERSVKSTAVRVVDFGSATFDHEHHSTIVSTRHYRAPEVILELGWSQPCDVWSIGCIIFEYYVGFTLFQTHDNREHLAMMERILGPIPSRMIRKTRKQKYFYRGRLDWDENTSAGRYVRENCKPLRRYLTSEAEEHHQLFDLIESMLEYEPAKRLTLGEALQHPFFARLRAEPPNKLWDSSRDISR
Mitogen-activated protein kinase kinase kinase 9 (Homo sapiens), sequence (P80192 whole entry, looked up): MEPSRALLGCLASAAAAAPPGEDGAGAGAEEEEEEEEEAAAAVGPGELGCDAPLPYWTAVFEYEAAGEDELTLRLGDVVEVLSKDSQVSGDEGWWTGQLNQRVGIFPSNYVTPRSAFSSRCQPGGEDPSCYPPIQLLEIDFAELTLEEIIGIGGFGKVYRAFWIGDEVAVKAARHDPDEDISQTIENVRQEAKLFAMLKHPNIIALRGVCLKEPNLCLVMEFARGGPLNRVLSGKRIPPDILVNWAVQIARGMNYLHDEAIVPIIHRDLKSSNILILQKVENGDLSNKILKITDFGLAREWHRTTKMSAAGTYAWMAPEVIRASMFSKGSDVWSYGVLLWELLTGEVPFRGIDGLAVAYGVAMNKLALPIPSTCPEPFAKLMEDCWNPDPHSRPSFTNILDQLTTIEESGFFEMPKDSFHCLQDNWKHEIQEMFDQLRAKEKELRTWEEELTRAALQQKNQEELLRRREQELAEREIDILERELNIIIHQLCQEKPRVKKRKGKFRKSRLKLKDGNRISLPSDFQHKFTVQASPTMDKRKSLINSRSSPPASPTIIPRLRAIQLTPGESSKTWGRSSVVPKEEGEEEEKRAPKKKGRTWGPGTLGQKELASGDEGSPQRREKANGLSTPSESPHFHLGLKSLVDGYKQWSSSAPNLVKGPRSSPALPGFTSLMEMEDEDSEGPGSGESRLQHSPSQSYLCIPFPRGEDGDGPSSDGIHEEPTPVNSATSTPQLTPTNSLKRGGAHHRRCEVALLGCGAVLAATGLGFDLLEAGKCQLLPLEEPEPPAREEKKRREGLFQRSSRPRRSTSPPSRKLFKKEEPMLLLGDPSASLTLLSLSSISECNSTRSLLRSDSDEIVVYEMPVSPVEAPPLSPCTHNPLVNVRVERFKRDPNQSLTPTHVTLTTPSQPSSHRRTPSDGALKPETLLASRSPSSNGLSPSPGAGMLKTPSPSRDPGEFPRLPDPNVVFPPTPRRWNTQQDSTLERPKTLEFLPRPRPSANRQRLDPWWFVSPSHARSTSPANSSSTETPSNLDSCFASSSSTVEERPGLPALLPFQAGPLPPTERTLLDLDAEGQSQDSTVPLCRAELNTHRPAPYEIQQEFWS
Calcium/calmodulin-dependent protein kinase type II subunit gamma (Homo sapiens), sequence (Q13555 whole entry): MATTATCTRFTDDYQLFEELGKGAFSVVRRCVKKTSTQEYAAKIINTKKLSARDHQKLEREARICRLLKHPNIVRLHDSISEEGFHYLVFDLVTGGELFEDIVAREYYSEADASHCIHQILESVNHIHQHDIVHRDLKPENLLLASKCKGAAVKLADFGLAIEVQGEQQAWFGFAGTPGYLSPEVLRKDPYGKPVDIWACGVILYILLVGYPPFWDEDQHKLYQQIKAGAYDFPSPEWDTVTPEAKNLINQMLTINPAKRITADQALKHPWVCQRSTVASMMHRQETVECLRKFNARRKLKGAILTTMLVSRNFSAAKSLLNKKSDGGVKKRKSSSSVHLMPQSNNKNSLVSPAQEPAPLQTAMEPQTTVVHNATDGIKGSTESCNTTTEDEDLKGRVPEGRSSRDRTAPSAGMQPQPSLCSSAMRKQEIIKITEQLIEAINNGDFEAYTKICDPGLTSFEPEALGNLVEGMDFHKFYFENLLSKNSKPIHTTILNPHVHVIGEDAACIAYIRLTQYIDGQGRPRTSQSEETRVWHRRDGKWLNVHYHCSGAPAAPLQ
MAP kinase-interacting serine/threonine-protein kinase 2, sequence (Q9HBH9 whole entry, looked up): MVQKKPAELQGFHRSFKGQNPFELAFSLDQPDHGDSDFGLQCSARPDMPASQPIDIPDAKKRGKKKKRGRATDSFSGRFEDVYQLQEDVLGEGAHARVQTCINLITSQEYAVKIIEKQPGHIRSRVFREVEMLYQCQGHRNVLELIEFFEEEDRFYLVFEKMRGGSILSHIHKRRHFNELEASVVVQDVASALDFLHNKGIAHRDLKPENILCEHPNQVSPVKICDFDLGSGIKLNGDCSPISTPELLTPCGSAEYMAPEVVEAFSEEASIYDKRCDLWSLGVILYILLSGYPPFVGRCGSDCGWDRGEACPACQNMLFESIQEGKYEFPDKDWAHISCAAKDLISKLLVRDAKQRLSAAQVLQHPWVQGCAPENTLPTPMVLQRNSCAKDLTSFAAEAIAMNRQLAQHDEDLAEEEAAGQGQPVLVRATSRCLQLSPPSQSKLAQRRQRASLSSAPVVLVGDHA
Protein kinase C theta type (Homo sapiens), sequence (Q04759 whole entry, looked up): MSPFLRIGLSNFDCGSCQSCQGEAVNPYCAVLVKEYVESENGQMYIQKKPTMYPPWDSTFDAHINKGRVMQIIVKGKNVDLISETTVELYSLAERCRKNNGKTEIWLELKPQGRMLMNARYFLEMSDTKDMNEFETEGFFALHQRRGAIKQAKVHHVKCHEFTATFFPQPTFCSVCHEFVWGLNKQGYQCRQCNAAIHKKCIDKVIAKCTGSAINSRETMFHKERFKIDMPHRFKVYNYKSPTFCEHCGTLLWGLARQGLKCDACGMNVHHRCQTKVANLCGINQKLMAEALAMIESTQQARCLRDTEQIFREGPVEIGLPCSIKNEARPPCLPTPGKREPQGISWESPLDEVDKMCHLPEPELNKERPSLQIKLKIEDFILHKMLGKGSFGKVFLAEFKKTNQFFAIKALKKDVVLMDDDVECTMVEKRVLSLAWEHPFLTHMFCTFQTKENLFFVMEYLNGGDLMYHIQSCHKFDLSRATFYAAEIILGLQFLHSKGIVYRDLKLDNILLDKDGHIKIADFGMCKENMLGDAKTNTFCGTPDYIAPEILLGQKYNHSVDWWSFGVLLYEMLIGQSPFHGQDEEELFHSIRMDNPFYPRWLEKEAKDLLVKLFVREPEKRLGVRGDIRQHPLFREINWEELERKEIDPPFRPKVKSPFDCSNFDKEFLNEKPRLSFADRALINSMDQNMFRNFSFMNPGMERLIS
Calcium/calmodulin-dependent protein kinase kinase 2 (Homo sapiens), sequence (Q96RR4 2-588 limits assumed): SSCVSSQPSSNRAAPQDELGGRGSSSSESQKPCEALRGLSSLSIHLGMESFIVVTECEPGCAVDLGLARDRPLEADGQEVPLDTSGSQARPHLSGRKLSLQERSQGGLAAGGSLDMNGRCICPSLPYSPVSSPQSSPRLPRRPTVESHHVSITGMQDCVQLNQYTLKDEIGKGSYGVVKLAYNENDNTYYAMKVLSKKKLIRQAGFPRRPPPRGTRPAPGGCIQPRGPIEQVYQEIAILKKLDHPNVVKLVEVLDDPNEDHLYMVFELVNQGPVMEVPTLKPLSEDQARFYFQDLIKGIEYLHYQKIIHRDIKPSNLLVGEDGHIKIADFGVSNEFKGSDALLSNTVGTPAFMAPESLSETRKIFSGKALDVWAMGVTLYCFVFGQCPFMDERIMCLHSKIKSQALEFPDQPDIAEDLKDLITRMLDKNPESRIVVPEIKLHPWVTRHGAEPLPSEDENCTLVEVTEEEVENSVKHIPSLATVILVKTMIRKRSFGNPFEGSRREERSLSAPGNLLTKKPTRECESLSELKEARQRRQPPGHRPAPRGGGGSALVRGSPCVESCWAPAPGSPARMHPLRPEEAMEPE

- fold change (FC) [1]: 0.26
- fold change (FC) [2]: 0
- inhibition [3]: 87%
- fold change (FC) [4]: 0.09
- fold change (FC) [5]: 0
- inhibition [6]: 2%
- inhibition [7]: 0%
Compound: CNC(=O)c1ccccc1Oc1nc(Nc2cc(OC)c(OC)c(OC)c2)ncc1Br

- inhibition [8]: 0%
- fold change (FC) [9]: 0.01
- fold change (FC) [10]: 0.53
- fold change (FC) [11]: 0.59
- fold change (FC) [12]: 0.01
Compound: O=C(N[C@@H](C1CC1)C(F)(F)F)c1cc(-c2cnn3cc(-c4ccc(F)cc4)cnc23)cs1

- fold change (FC) [13]: 0
Compound: CC(C)[C@H](NC(=O)c1cc(-c2cnn3cc(-c4ccc(OCCN5CCCCC5)cc4)cnc23)cs1)C(F)(F)F
